Laboratory results reported in publication PMC10816808, “Enhancement of the Antitumor and Antimetastatic Effect of Topotecan and Normalization of Blood Counts in Mice with Lewis Carcinoma by Tdp1 Inhibitors—New Usnic Acid Derivatives” (International Journal of Molecular Sciences, 2024).
Where “and” joins values, the source holds several entries; their conditions need not be identical. Equal entries are not always repeated.

Assays:
[1] = tested on: Lewis lung carcinoma (LLC); assay: Antitumor and antimetastatic effect in the Lewis lung carcinoma model; format: in vivo, mice; settings: for average number of metastases in the lungs / average primary node (tumor) weight / tumor growth inhibition (TGI): C57BL mice with LLC; for average number of metastases in the lungs / average primary node (tumor) weight: day 18, mean ± SD; for average primary node (tumor) weight: single dose; for tumor growth inhibition (TGI): vs intact control; for number of metastases in the lungs / tumor weight: individual animals; for effect on the number of metastases in the lungs (in words): monotherapy, Tpc 1 mg/kg i/p, 7 50 mg/kg i/p or i/g
Text: Compound 7 is a hybrid of two compounds: leaders in their subclasses of usnic acid derivatives 1 and 4 [28, 32]. We studied the ability of compound 7 to sensitize the effect of topotecan on murine Lewis lung carcinoma (LLC) (Tpc + 7, Figure 3). The LLC cell line was maintained as a transplantable strain in mice and was provided by the cell depository of the Institute of Cytology and Genetics SB RAS (Novosibirsk, Russia). […] Subcutaneous transplantation leads to the development of a primary node at the injection site and the appearance of metastases in the lungs on days 17–21 [47]. The size of the primary tumor was determined as the difference in the weight of the healthy limb and the limb with the tumor after the mice were removed from the experiment on 18th day after LLC transplantation.
Female C57BL mice with a body weight of ~19–21 g were used in the study. Mice were housed in plastic cages with a wood chip bedding and had free access to water and food. Lewis lung carcinoma (LLC) and Krebs-2 ascites were used as experimental tumor models. The transplantable tumors were obtained from the cell bank of the Institute of Cytology and Genetics (Novosibirsk, Russia). The LLC mouse model is the most common model of lung cancer; LLC cells remain tumorigenic and capable of metastasis into the lung in C57BL mice. Tumor tissue was minced and resuspended in 0.9% NaCl prior to grafting. LLC was injected into the right thigh of mice at 800,000 cells in 0.2 mL per mouse.
Previously, we divided the animals into 6 groups of 6–7 individuals in each, the treatment was carried out once 7 days after tumor transplantation: • - Group 1—Intact control—mice of this group were inoculated with a tumor, receiving 0.2 mL of saline intraperitoneally; • - Group 2—DMSO-Tween-80—mice were injected once intragastrically with a probe 200 μL of a solution containing saline, Tween-80 (10%) and DMSO (15%), a solvent for 7; • - Group 3—Tpc (aqueous solution)—mice were injected once intraperitoneally with 200 µL of Tpc at a single dose of 1 mg/kg; • - Group 4—Tpc + 7 i/g—mice received Tpc once as described for group 3 and 7 in the form of 200 µL of suspension (Tween-80 (10%) and DMSO (15%) in saline) once intragastrically at a dose of 50 mg/kg; • - Group 5—7 i/g—mice were injected with 7 as described for group 4; • - Group 6—Tpc + 7 i/p—mice were injected with topotecan once as described for groups 3 and 7 in the form of 200 µL of suspension (Tween-80 (10%) and DMSO (15%) in saline) once intraperitoneally at a dose of 50 mg/kg; • - Group 7—7 i/p—mice were injected with 7 as for group 6.
The substances were administered as a single injection in a volume of 0.2 mL on day 13 after tumor grafting. The anticancer effect was evaluated by the primary tumor growth and the number of metastases in the lungs of all mice. Metastases were counted after fixation in 10% formalin under an MBI-3 microscope (LOMO, Saint Petersburg, Soviet Union) at a threefold magnification.

[2] = Topotecan cytotoxicity with Tdp1 inhibitor (MTT), MRC-5; format: cell-based; settings: human, MRC-5 cells (lung fibroblasts, nontumor); topotecan alone or in the presence of 5 µM Tdp1 inhibitor
Text: (§1) Tdp1 inhibitors combined with topotecan dramatically reduce tumor metastasis. Usnic acid derivatives of the enamine and hydrazonothiazole series turned out to be promising sensitizers of the action of topotecan both on cultured cell lines and on mouse tumors in vivo [30, 32]. We studied the ability of the usnic acid derivatives to sensitize the effects of topotecan on the same panel of cell lines. We used two non-cancerous cell lines MRC-5 and HEK293A, including previously obtained HEK293A Tdp1 knockout cells (for compound 7), and cancerous cell lines HeLa, HCT-116, A-549, MCF-7, T98G. We found the most pronounced and reliable sensitizing effect on cancerous cell lines HeLa, HCT-116, A-549, MCF-7 only for compound 7 (Table 2 and Figures S2 and S3).
(§2) Cytotoxicity of the compounds against human tumor cell lines: HeLa (cervical cancer), HCT-116 (colorectal cancer), A-549 (lung cancer), MCF-7 (breast cancer), T98G (glioblastoma), HepG2 (hepatocarcinoma), and nontumor cell lines: MRC-5 (lung fibroblasts) and HEK293A (human embryonic kidney) was examined using the MTT test. HCT-116 and MRC-5 cell lines were provided by the Cell Culture Bank of the State Research Center for Virology and Biotechnology Vector, Novosibirsk, Russia. A-549, MCF-7, and T98G cell lines were obtained from the Russian Cell Culture Collection (RCCC) Institute of Cytology RAS (St. Petersburg, Russia). […]

MCF-7 = assay: Topotecan cytotoxicity with Tdp1 inhibitor (MTT), MCF-7; format: cell-based; settings: Homo sapiens, MCF7; topotecan alone or in the presence of 5 µM Tdp1 inhibitor
Text: as §1, §2

HCT-116 = assay: Topotecan cytotoxicity with Tdp1 inhibitor (MTT), HCT-116; format: cell-based; settings: Homo sapiens, topotecan alone or in the presence of 5 µM Tdp1 inhibitor
Text: as §1, §2

A-549 = assay: Topotecan cytotoxicity with Tdp1 inhibitor (MTT), A-549; format: cell-based; settings: Homo sapiens, A549; topotecan alone or in the presence of 5 µM Tdp1 inhibitor
Text: as §1, §2

[3] = MTT cytotoxicity test, HeLa; format: cell-based; settings: human, HeLa cells (cervical cancer), read-out: semitoxic concentration (CC50), HeLa
Text: (§3) Compounds 6 and 8 with a bromophenol residue in the enamine fragment have a weak or moderate effect on cell survival (Table 1 and Supplementary Figure S1).
(§4) Cytotoxicity of the compounds against human tumor cell lines: HeLa (cervical cancer), HCT-116 (colorectal cancer), A-549 (lung cancer), MCF-7 (breast cancer), T98G (glioblastoma), HepG2 (hepatocarcinoma), and nontumor cell lines: MRC-5 (lung fibroblasts) and HEK293A (human embryonic kidney) was examined using the MTT test. HCT-116 and MRC-5 cell lines were provided by the Cell Culture Bank of the State Research Center for Virology and Biotechnology Vector, Novosibirsk, Russia. A-549, MCF-7, and T98G cell lines were obtained from the Russian Cell Culture Collection (RCCC) Institute of Cytology RAS (St. Petersburg, Russia). HEK293A cells were purchased (ThermoFisher Scientific, Waltham, MA, USA).
(§5) The cell culture medium DMEM medium (Invitrogen, Carlsbad, CA, USA) contained 10% fetal bovine serum (FBS) (Invitrogen), penicillin (100 units/mL), and streptomycin (100 µg/mL). Cells were seeded into 96-well plates at 5000 cells per well and grown at 37 °C and 5% CO2 in a humid atmosphere. At 30–50% confluence, the tested compounds were added to the medium to a final DMSO content of 1%. Control wells contained 1% DMSO. To determine the cytotoxicity of Tdp1 inhibitors, the cells were treated with compounds with concentrations ranging from 1 to 100 µM for 72 h at 37 °C […]. All measurements were repeated a minimum of twice.

[4] = MTT cytotoxicity test, HCT-116; format: cell-based; settings: human, HCT-116 cells (colorectal cancer), read-out: semitoxic concentration (CC50), HCT-116
Text: as §3, §4, §5

[5] = MTT cytotoxicity test, T98G; format: cell-based; settings: human, T98G cells (glioblastoma), read-out: semitoxic concentration (CC50), T98G
Text: as §3, §4, §5

[6] = Tpc 1 mg/kg i/p and/or 7 50 mg/kg i/p
[7] = mice with LLC, Tpc 1 mg/kg i/p and/or 7 50 mg/kg i/p
[8] = 7 50 mg/kg i/g, alone or with Tpc 1 mg/kg i/p
[9] = mice with LLC, 7 50 mg/kg i/g, alone or with Tpc 1 mg/kg i/p

Compound	average number of metastases in the lungs [1, 6]	average primary node (tumor) weight [1, 6]	tumor growth inhibition (TGI) [1, 6]	number of metastases in the lungs [1, 7]	tumor weight [1, 7]	effect on the number of metastases in the lungs (in words) ([1]; mice with LLC)	CC50 [2]	CC50 (MCF-7)	CC50 (HCT-116)	CC50 (A-549)	CC50 at 72 h [3]	average primary node (tumor) weight [1, 8]	tumor growth inhibition (TGI) [1, 8]	number of metastases in the lungs [1, 9]	tumor weight [1, 9]	effect on the growth of the primary node (in words) ([1]; mice with LLC, mono mode)	CC50 at 72 h [4]	CC50 at 72 h [5]
CC[C@@]1(O)C(=O)OCc2c1cc1n(c2=O)Cc2cc3c(CN(C)C)c(O)ccc3nc2-1 [Tpc, topotecan]	11,8±6,1	2,8±0,5 g	36.4%	24 and 9 and 5	2.9 g and 3 g and 3.4 g and 2.7 g	virtually no effect	> 10000 nM	1400 nM	810 nM	1500 nM								
C/C(NCCCc1cc(C(C)(C)C)c(O)c(C(C)(C)C)c1)=C1\C(=O)C=C2Oc3c(-c4csc(N/N=C/c5ccc(Br)cc5)n4)c(O)c(C)c(O)c3[C@@]2(C)C1=O [Compound 7, (4E)-10-{2-[(E)-2-[(4-bromophenyl)methylidene]hydrazin-1-yl]-1,3-thiazole-4-yl}-4-(1-{[3-(3,5-di-tret-butyl-4-hydroxyhenyl)propyl]amino}ethylidene)-11,13-dihydroxy-2,12-dimethyl-8-oxatricyclo [7.4.0.02,7]trideca-1(13),6,9,11-tetraen-3,5-dione]	15,5±5,5	3,9±0,7 g	11.4%	10 and 21	3.4 g and 4.4 g	no effect					> 100000 nM	4,2±0,9 g	4.5%	18 and 4 and 21 and 0	2.9 g and 4.5 g and 4.8 g and 3.7 g and 5.3 g	no effect	> 100000 nM	> 100000 nM
